Experimental data taken from patent publication US6656509B1, “Combination of selenium-containing compounds with cytostatics” (Biosyn Arzneimittel GmbH, priority 1998, dated 2003).

Tests used:
[1] = tested on: pancreatic cancer xenograft PAXF 736; assay: clonogenic assay, single agents and combination studies; assay type: cell-based, human; conditions: (X261, X295)
Protocol: (§1) The cell mixture was passed through sieves of 200 μm and 50 μm mesh size and washed thereafter twice with PBS. The percentage of viable cells was determined in a Neubauer counting chamber using trypan blue exclusion.
(§2) 8×10^3 to 1,6×10^4 cells were added to 0.2 ml of the same culture medium together with 0.4% agar and placed in already coated 24-multiwell dishes. Test substances were applied by continuous exposure (drug overlay) in 0.2 ml medium. Every dish included six control wells containing the vehicle- and drug-treated groups in triplicate at six concentrations.
(§3) Cultures were incubated at 37° and 7% CO2 in a humidified atmosphere for 5 to 15 days (depending on the doubling time of the tumor stem cells) and monitored for colony growth using an inverted microscope. Within this period, in vitro tumor growth led to the formation of colonies with a diameter of ≧50 μm. At the time of maximum colony formation counts were performed with an automatic image analysis system (OMNICOM Fas IV, Biosys GmbH). […] Drug effects were expressed in terms of the percentage of surviving cells, obtained by comparison of the mean number of colonies in the treated plates with the mean colony count of the untreated controls (test-versus-control-group value, T/C=colony countTreated Group*100/colony countControl Group).
(§4) Coefficient of variation in the control group ≦50%. IC50 and IC70 values were determined by plotting compound concentration versus cell survival rate. Mean IC50 and IC70 values were calculated according to the formula: [formula]
(§5) with x=specific tumor xenograft and n=total number of tumor xenografts studied. If an IC50 or IC70 value could not be determined within the examined dose range, the lowest or highest concentration studied was used for the calculation.
(§6) Each experiment included the chemotherapeutic agents in 6 concentrations, selenium in 2 concentrations (3 and 30 μM), and the combination of all doses with selenium at 3 and 30 μM. All compounds and combinations were studied in triplicates. […] Each experiment was performed twice.
(§7) T/Cexpectd(A+B)=T/C(A)×T/C(B)/100
(§8) For a zero-interactive drug combination (additivity of drug effects) T/Cexpected(A+B)[…]T/Cobserved(A+B). A drug combination is synergistic if T/Cobserved(A+B) is statistically significant[…]T/Cexpected(A+B). Statistical significance was determined by the T-test.

[2] = tested on: pancreatic cancer xenograft PAXF 546; assay: as above; assay type: cell-based, human; conditions: observed; X261, X295
Protocol: as §1, §2, §3, §4, §5, §6, §7, §8

## Nc1ccn([C@@H]2O[C@H](CO)[C@@H](O)C2(F)F)c(=O)n1 [Gemcitabine]
[1]; gemcitabine alone
  T/C in % at a gemcitabine concentration (μM) of 1 × 10^−1: 30 ± 8%
  T/C in % at a gemcitabine concentration (μM) of 1 × 10^−2: 71± 10%
  T/C in % at a gemcitabine concentration (μM) of 1 × 10^−3: 77 ± 13%
  T/C in % at a gemcitabine concentration (μM) of 1 × 10^−4: 84 ± 12%
  T/C in % at a gemcitabine concentration (μM) of 1 × 10^−5: 78 ± 14%
  T/C in % at a gemcitabine concentration (μM) of 1 × 10^−6: 89 ± 11%
[2]
  T/C in % at a gemcitabine concentration (μM): 85 ± 15%
  T/C in % at a gemcitabine concentration (μM) of 1.0: 30 ± 6%
  T/C in % at a gemcitabine concentration (μM) of 1 × 10^−1: 48 ± 8%
  T/C in % at a gemcitabine concentration (μM) of 1 × 10^−2: 61± 11%
  T/C in % at a gemcitabine concentration (μM) of 1 × 10^−3: 83 ± 12%
  T/C in % at a gemcitabine concentration (μM) of 1 × 10^−4: 80 ± 12%
  T/C in % at a gemcitabine concentration (μM) of 1 × 10^−5: 73 ± 20%

## CO[C@@]12[C@H](COC(N)=O)C3=C(C(=O)C(C)=C(N)C3=O)N1C[C@@H]1N[C@@H]12 [Mitomycin C]
[1]; mitomycin C alone
  T/C in % at a mitomycin C concentration (μM) of 1 × 10^−1: 11 ± 7%
  T/C in % at a mitomycin C concentration (μM) of 1 × 10^−2: 30± 7%
  T/C in % at a mitomycin C concentration (μM) of 1 × 10^−3: 46 ± 8%
  T/C in % at a mitomycin C concentration (μM) of 1 × 10^−4: 56 ± 11%
  T/C in % at a mitomycin C concentration (μM) of 1 × 10^−5: 58 ± 10%
  T/C in % at a mitomycin C concentration (μM) of 1 × 10^−6: 77 ± 13%
[2]
  T/C in % at a mitomycin C concentration (μM): 87 ± 11%
  T/C in % at a mitomycin C concentration (μM) of 1.0: 5 ± 2%
  T/C in % at a mitomycin C concentration (μM) of 1 × 10^−1: 57 ± 8%
  T/C in % at a mitomycin C concentration (μM) of 1 × 10^−2: 80± 12%
  T/C in % at a mitomycin C concentration (μM) of 1 × 10^−3: 70 ± 13%
  T/C in % at a mitomycin C concentration (μM) of 1 × 10^−4: 70 ± 10%
  T/C in % at a mitomycin C concentration (μM) of 1 × 10^−5: 84 ± 14%
